pIC50: −log10 of the molar value.
Tested on: Mycobacterium tuberculosis H37Rv growth inhibition, no glycerol
Test: Confirmatory growth inhibition assay, Mycobacterium tuberculosis H37Rv, absence of glycerol (AID 449764);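 note: growth read after 7 days of incubation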
Details: for IC90: measured here: IC90 growth inhibition

| Compound | pIC50 | IC90 [µM] |
| --- | --- | --- |
| c1ccc2c(c1)CCN(c1nc(CN3CCOCC3)nc3sc4c(c13)CCCC4)C2 | 4.34 | 52.7 |
| CCCn1nnnc1NC(=O)c1ccc(C)cc1Cl | 4.79 | 33.1 |
| Cc1ccc(NC(=O)CCl)cc1S(=O)(=O)N1CCCCCC1 | 5.00 | 14.8 |
| CCc1cc(OCCCCNCc2ccccc2)ccc1Cl | 4.57 | 36 |
| O=C(Cc1ccc(Nc2nc3ccc(Br)cc3[nH]2)cc1)NCCc1cccs1 | 4.53 | 37 |
| CCCCn1nc(C(=O)Nc2ccccc2N2CCCC2)c2ccccc2c1=O | 4.09 | > 100 |
| COC(=O)CCc1nc2c(C#N)c(-c3ccc(Cl)cc3)ccn2n1 | 5.57 | 5.22 |
| CCOC(=O)c1ccc(N=C2C(=S)N(c3ccc(C(=O)OCC)cc3)C(=N)N2/N=C/c2ccccc2)cc1 | 4.00 | > 100 |
| COc1ccc(N2CCN(C(=O)c3ccc(CNc4c(N5CCOCC5)c(=O)c4=O)cc3)CC2)cc1 | 5.53 | 3.24 |
| Nc1nonc1C(=O)NCCNCc1c(OCc2ccccc2F)ccc2ccccc12 | 4.40 | 54.4 |
| C=CCc1c(C)nc(C)nc1N/N=C/c1ccccc1O | 5.34 | 8.85 |
| CC1(C)OC(=O)C(=Cc2ccc[nH]2)C(=O)O1 | > 6.70 | > 100 |
| CCOc1cc(C=O)cc(N=Nc2cccc([N+](=O)[O-])c2)c1O | 5.08 | 13.5 |
| Cc1ccc(-n2cc(CNCCn3nc(C)cc3C)c(-c3ccc(F)cc3)n2)cc1 | 5.09 | 13.5 |
| C=C(C)C(=O)OCC(O)COc1ccc(C(C)(C)c2ccc(OCC(O)COC(=O)C(=C)C)cc2)cc1 (stereo unspecified) | 4.45 | 49.1 |
| CN(C)C1(CNC(=O)Nc2ccc(Cl)c(Cl)c2)CCCCC1 | 4.93 | 13.1 |
| O=C1C2(Cl)C3(Cl)C4(Cl)C(Cl)(Cl)C5(Cl)C3(Cl)C1(Cl)C5(Cl)C24Cl (stereo unspecified) | 4.35 | 65.2 |
| COc1ccccc1C1c2ccc3ccccc3c2Oc2ncn(CCN(C)C)c(=N)c21 (stereo unspecified) | 4.60 | 28.9 |
| O=c1cc(O)c2sc3nc(-c4cccnc4)cc(C(F)(F)F)c3c2[nH]1 | 4.40 | > 100 |
| Cc1ccc(-c2ccc(C3C(C#N)=C(N)Oc4n[nH]c(C)c43)o2)cc1 (stereo unspecified) | – | > 100 |
| O=C(CN1CCC(n2nnc3cc(C(F)(F)F)ccc32)CC1)NCc1cccs1 | 4.43 | 47.9 |
| CCCCC(CC)CN=C(N)NC(N)=NCCCCCCN=C(N)NC(N)=NCC(CC)CCCC (stereo unspecified) | 5.27 | 5.97 |

| Compound | pIC50 | IC90 [µM] |
| --- | --- | --- |
| COC(=O)c1ccc(Cn2cc(C(F)(F)F)cc([N+](=O)[O-])c2=O)cc1 | 6.20 | > 100 |
| CC1CCCC(C)N1C(=O)COC(=O)c1cc(-c2cccs2)nn1-c1ccccc1 (stereo unspecified) | 4.21 | 86.3 |
| Brc1ccc(-c2nc3ncccn3c2Nc2ccc3c(c2)OCCO3)o1 | 4.04 | > 100 |
| Cc1c(Cl)ccc2c1NC(=O)[C@]21N[C@@H](Cc2ccccc2)[C@H]2C(=O)N(c3ccc(F)cc3)C(=O)[C@H]21 | 4.63 | 26.6 |
| O=C(NC(=S)Nc1ccc(N2CCCCC2)c(Cl)c1)c1cccs1 | 4.67 | 29.2 |
| COc1ccc(C[C@H](N)C(=O)N[C@H]2[C@@H](O)[C@H](n3cnc4c(N(C)C)ncnc43)O[C@@H]2CO)cc1 | 5.40 | 5.82 |
| CC(=O)c1ccc(N2CCC(c3cc(-c4ccc(Cl)cc4Cl)n[nH]3)CC2)c([N+](=O)[O-])c1 | 4.61 | > 100 |
| Oc1ccccc1/C=N/Nc1ccnc(SCc2ccccc2)n1 | 5.57 | 2.95 |
| C/C(CC(=O)Nc1ccc(Cl)cc1C(F)(F)F)=N\NC(N)=S | 4.80 | 20.1 |
| N#Cc1nc(-c2ccc(OCc3ccccc3)cc2)oc1NCCCn1ccnc1 | 4.43 | 43 |
| O=C(CSc1nc2ccccc2nc1N1CCOCC1)N1CCN(c2ccccc2)CC1 | 4.93 | 14 |
| CCOc1ccc(-c2cc(C(=O)NCCCn3ccnc3)c3cc(Br)ccc3n2)cc1 | 4.60 | 27.6 |
| COC(=O)c1ccc2c(=O)[nH]c(CSc3nc(C)cs3)nc2c1 | 4.15 | > 100 |
| C/C(=C\C(=S)Nc1ccccc1)Nc1ccc2ccccc2c1 | 4.42 | 50.8 |
| CCCc1cc(-c2nc(N)ncc2-c2ccc3c(c2)OCCCO3)c(O)cc1OC | 4.27 | 81 |
| CCOc1cc(/C=C\[N+](=O)[O-])ccc1OCC(=O)Nc1ccccc1C | 4.53 | 59 |
| Cc1ccccc1CSc1nsc(N)n1 | 5.04 | 24.1 |
| CN(c1ccccc1)S(=O)(=O)c1cccc(C(=O)NCc2ccccc2CN2CCCC2)c1 | 4.20 | 77.9 |
| CCc1nnc(N/N=C/c2cc(C)c(C)cc2C)n1N | 5.23 | 6.55 |
| Cc1ccc(CN2CCC(c3cc(-c4ccc(Cl)cc4)n[nH]3)CC2)cc1 | 4.93 | 18.2 |
| CC(C)(C)c1ccc(-c2nc(-c3ccncc3)no2)cc1 | 4.45 | 47.6 |
| O=C1CC(=C(c2ccccc2)c2ccccc2)C(=O)N1CCCCN1CCN(c2ccccc2)CC1 | 4.60 | 28.8 |

| Compound | pIC50 | IC90 [µM] |
| --- | --- | --- |
| Cc1c(C(=O)N(C)C)sc2nc(-c3ccccn3)[nH]c(=O)c12 | 4.71 | 31.4 |
| COC(=O)C(CCSC)NC(=O)c1cn(-c2ccc(OC)cc2)c(=O)c2ccccc12 (stereo unspecified) | 4.61 | > 25 |
| CCOC(=O)COc1cc([N+](=O)[O-])cc2cccnc12 | 4.52 | 46.4 |
| O=C(NN=C1c2ccccc2-c2ccccc21)c1cccc(Br)c1 | 4.37 | > 100 |
| COc1ccc(C2c3[nH]c4ccccc4c3CCN2Cc2cccn2-c2ncccn2)cc1C (stereo unspecified) | 4.44 | 47 |
| O=C(NNC(=O)C12CC3CC(CC(C3)C1)C2)c1ccccn1 | 4.66 | 24.4 |
| Cc1cc(C)c2c(CN3CCN(Cc4ccccc4)CC3)cc(=O)oc2c1C | 4.32 | 55.2 |
| Cc1ccc(C(c2nnnn2Cc2cccs2)N2CCN(Cc3ccc4c(c3)OCO4)CC2)cc1 (stereo unspecified) | 4.61 | 38 |
| Cc1ccc2c(c1)c1ncnc(N3CCc4ccccc4C3)c1n2C | 4.13 | > 100 |
| COc1ccc(C(=O)COC(=O)[C@H](C)Nc2ccc(C(F)(F)F)cc2[N+](=O)[O-])cc1 | 4.74 | > 25 |
| O=C(CSc1nnc(-c2cccs2)o1)NCC1CN(Cc2ccccc2)CCO1 (stereo unspecified) | 4.68 | 25.5 |
| Nc1c(C(=O)NC2CCCCC2)nsc1C(=O)OCC(=O)NC1CCCCC1 | 5.54 | 3.4 |
| CC1(O)CC(c2ccc(Cl)cc2)=NN1C(=O)c1ccc([N+](=O)[O-])cc1 (stereo unspecified) | 5.11 | > 100 |
| Brc1ccc(N/N=C(/N=Nc2nn[nH]n2)c2ccccc2)cc1 | 4.84 | 23.3 |
| COc1cc(OC)nc(-n2ncc(Br)c(Br)c2=O)n1 | 4.65 | 25.1 |
| CC1CC(C)(C)Nc2ccc(OC(=O)c3ccco3)cc21 (stereo unspecified) | 4.66 | 29.5 |
| Cc1ccc(C(=O)N/C(=C/c2ccco2)C(=O)OCN2C(=O)c3ccccc3C2=O)cc1 | 4.79 | 40.4 |
| FC(F)(F)c1ccc(Nc2nnnc3ccccc23)cc1 | 4.31 | 55.3 |
| COc1ccc(C)cc1Nc1n[n+](-c2ccccc2)c(-c2c(Cl)cccc2Cl)s1 | 4.73 | 24.9 |
| Cc1cc(Cl)ccc1OCCCC(=O)NO | 4.19 | > 100 |
| COc1cccc(Nc2ccc([N+](=O)[O-])c3nonc23)c1 | 5.00 | 14.5 |
| O=C1N=C(N2CCC(Cc3ccccc3)CC2)S/C1=C/c1cn[nH]c1-c1ccccc1 | 4.10 | > 100 |

| Compound | pIC50 | IC90 [µM] |
| --- | --- | --- |
| C=CCOC(=O)COc1ccc2c(C)c(CC)c(=O)oc2c1 | 5.83 | 1.68 |
| Cc1ccc(S(=O)(=O)Nc2cccc3ncccc23)s1 | 5.47 | 6.54 |
| CC(C(c1ccc2c(c1)OCO2)c1c(N)n(C)c(=O)n(C)c1=O)[N+](=O)[O-] (stereo unspecified) | 5.09 | 11.8 |
| C#C[C@]1(O)CC[C@H]2[C@@H]3CCc4cc(OC5CCCC5)ccc4[C@H]3CC[C@@]21C | 4.44 | 54.7 |
| CCc1ccc(-c2cc(C)no2)cc1S(=O)(=O)NCCCN1CCN(c2ccccc2)CC1 | 4.41 | 47.2 |
| COC(=O)c1ccc(NC(=O)CSc2nc3ccc(N4C(=O)C5C6C=CC(C6)C5C4=O)cc3s2)cc1 (stereo unspecified) | 5.31 | 6.03 |
| CC1C/C(=C\c2cccnc2)C(=O)/C(=C/c2cccnc2)C1 (stereo unspecified) | 5.29 | 8.18 |
| Cn1cnnc1SCc1ccc(C(=O)N=Nc2c(O)n(Cc3ccc(Cl)cc3)c3ccccc23)cc1 | 5.52 | 3.38 |
| CNc1nc(SCc2ccccc2Cl)nc2c1CCCC2 | 6.35 | 1.21 |
| c1ccc(Cn2c(CNc3nc4ccccc4n3CCN3CCCCC3)nc3ccccc32)cc1 | 4.35 | 72.8 |
| CC(C)(O)C#Cc1ccc(C(=O)Nc2ccc3c(c2)OCO3)s1 | 4.37 | > 100 |
| CCOC(=O)c1c(NC(=O)CCl)sc(CN(C)C)c1-c1ccccc1 | 5.52 | 10.7 |
| CCN(CC)CCOC(=O)c1ccc(N/C=C(/C#N)c2nc(-c3ccc4c(c3)OCO4)cs2)cc1 | 4.21 | > 100 |
| CC1(C)CC(=O)C2=C(C1)OC(N)=C([N+](=O)[O-])C2c1ccc(C#N)s1 (stereo unspecified) | 4.10 | 97.7 |
| COc1ccccc1N(O)C1CC(=O)N(c2ccc(Br)cc2)C1=O (stereo unspecified) | 4.64 | 25.9 |
| Cc1noc(C)c1COc1ccc(C(=O)OCC(=O)NC23CC4CC(CC(C4)C2)C3)cc1 | 4.62 | 35.5 |
| COc1ccc(N/N=C(/N=Nc2nc(C)cc(=O)[nH]2)c2ccccc2)cc1 | 5.25 | 6.4 |
| CCCn1nc(C(=O)NNC(=O)c2ccc(C)c(C)c2)c2ccccc2c1=O | 4.61 | 27.9 |
| CCCNC1=C(N(C(C)=O)c2cccc(F)c2)C(=O)c2ccccc2C1=O | 4.92 | 15.6 |
| COC(=O)c1ccc(-n2cnc3ccccc32)nc1 | 4.75 | 39.5 |

— PubChem BioAssay AID449764 (Southern Research Specialized Biocontainment Screening …, 2010)
